Results taken from patent publication US10947241B2, “Phenyl phthalazine derivative, method for the preparation thereof, and pharmaceutical composition comprising the same” (Seoul National University Hospital, priority 2016, dated 2021).
Structures can show the parent of a compound that is named as a salt.

Target: hResistin (Homo sapiens (Human), UniProt Q9HD89)
Assay: Evaluation of the ability to inhibit TNF-α secretion by hResistin (THP-1 cells, ELISA)
Type: cell-based
Settings: for inhibition at 5 µM: inhibition of TNF-α secretion by hResistin in THP-1 cells; for IC50: THP-1 human monocyte cell line, human recombinant Resistin
Experimental: Experimental Example: Evaluation of the Ability to Inhibit TNF-α Secretion by hResistin
Using THP-1 (human monocyte) cell line and ELISA system, the abilities to inhibit TNF-α secretion by hResistin (IC50) were evaluated for the compounds prepared in the above examples. The compounds target hResistin, and the abilities of the compounds to inhibit TNF-α secretion by human recombinant Resistin in human monocyte (THP-1) were evaluated. The abilities to inhibit TNF-α secretion were assessed by ELISA quantifying the amount of antibody with the enzyme as a marker using an antigen-antibody reaction.
Specifically, the cultured cells were spun down at 1,500 rpm for 2 minutes, the supernatant was removed and then the cells were re-suspended in 10 mL of complete RPMI-1640 medium. After counting the number of cells using Luna™ Automated Cell Counter, cells were plated into 96-well assay plates at 50 μL per well. The cells cultured for 24 hours were treated with the test substances in accordance with the concentration for 1 hour, and then the supernatant was collected and subjected to ELISA assay. In the ELISA assay, the absorbance at 450 nm (OD450 nm) was measured using Flexstation 3. The ability of each test substance to inhibit TNF-α secretion (IC50) and its inhibition at a concentration of 5 uM are shown in Table 1 below.

Sequence of hResistin (Q9HD89 19-108): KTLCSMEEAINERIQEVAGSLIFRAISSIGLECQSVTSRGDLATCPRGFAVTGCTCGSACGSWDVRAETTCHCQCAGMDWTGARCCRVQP

SMILES	inhibition at 5 µM [%]	IC50 [nM]
C[C@H]1CN(c2nnc(-c3ccc(Cl)cc3)c3ccccc23)CCN1C(=O)C(C)(C)N [Example 72, (S)-2-amino-1-(4-(4-(4-chlorophenyl)phthalazin-1-yl)-2-methylpiperazin-1-yl)-2-methylpropan-1-one hydrochloride]	72.2	
CNC1CCN(c2nnc(-c3ccc(Cl)cc3)c3cc(F)ccc23)C1 (stereo not drawn) [Example 91, 1-(4-(4-chlorophenyl)-6-fluorophthalazin-1-yl)-N-methylpyrrolidin-3-amine hydrochloride]	76.6	600
Clc1ccc(-c2nnc(N3CCC(N4CCOCC4)CC3)c3ccccc23)cc1 [Example 8, 4-(1-(4-(4-chlorophenyl)phthalazin-1-yl)piperidin-4-yl)morpholine]	54.4	
Clc1ccc(-c2nnc(N3CCC4CCNC4C3)c3ccccc23)cc1 (stereo not drawn) [Example 87, 1-(4-chlorophenyl)-4-(tetrahydro-1H-pyrrolo[2,3-c]pyridin-6(2H,7H,7aH)-yl)phthalazine hydrochloride]		1700
NC(=O)CCC(N)C(=O)N1CCN(c2nnc(-c3ccc(Cl)cc3)c3ccccc23)CC1 (stereo not drawn) [Example 84, 4-amino-5-(4-(4-(4-chlorophenyl)phthalazin-1-yl)piperazin-1-yl)-5-oxopentanamide hydrochloride]	12.6	
O=C(C1CC1)N1CCC(c2nnc(-c3ccc(Cl)cc3)c3ccccc23)CC1 [Example 56, (4-(4-(4-chlorophenyl)phthalazin-1-yl)piperidin-1-yl)(cyclopropyl)methanone]	26.2	
O=C(C1CC1)N1CCN(c2nnc(-c3ccc(Cl)cc3)c3ccccc23)CC1 [Example 10, (4-(4-(4-chlorophenyl)phthalazin-1-yl)piperazin-1-yl)(cyclopropyl)methanone]		1200
N[C@@H](COCc1ccccc1)C(=O)N1CCN(c2nnc(-c3ccc(Cl)cc3)c3ccccc23)CC1 [Example 79, (S)-2-amino-3-(benzyloxy)-1-(4-(4-(4-chlorophenyl)phthalazin-1-yl)piperazin-1-yl)propan-1-one hydrochloride]	65.4	
OCCC1CCN(c2nnc(-c3ccc(Cl)cc3)c3ccccc23)CC1 [Example 4, 2-(1-(4-(4-chlorophenyl)phthalazin-1-yl)piperidin-4-yl)ethanol]	40.4	1600
OCCN1CCN(c2nnc(-c3ccccc3)c3ccccc23)CC1 [Example 1, 2-(4-(4-phenylphthalazin-1-yl)piperazin-1-yl)ethanol]		1000
C[C@@H]1CN(c2nnc(-c3ccc(Cl)cc3)c3ccccc23)CCN1C(=O)C(C)(C)N [Example 70, (R)-2-amino-1-(4-(4-(4-chlorophenyl)phthalazin-1-yl)-2-methylpiperazin-1-yl)-2-methylpropan-1-one hydrochloride]	61.4	
CC(=O)N1CCN(c2nnc(-c3ccc(C)cc3)c3ccccc23)CC1 [Example 2, 1-(4-(4-p-tolylphthalazin-1-yl)piperazin-1-yl)ethanone]		5000
O=S(=O)(C1CC1)N1CCN(c2nnc(-c3ccc(Cl)cc3)c3ccccc23)CC1 [Example 37, 1-(4-chlorophenyl)-4-(4-(cyclopropylsulfonyl)piperazin-1-yl)phthalazine]	52.9	
CN[C@@H]1CCCN(c2nnc(-c3ccc(Cl)cc3)c3ccccc23)C1 [Example 57, (R)-1-(4-(4-chlorophenyl)phthalazin-1-yl)-N-methylpiperidin-3-amine hydrochloride]	92.8	1000
O=S(=O)(C1CCCC1)N1CCN(c2nnc(-c3ccc(Cl)cc3)c3ccccc23)CC1 [Example 34, 1-(4-chlorophenyl)-4-(4-(cyclopentylsulfonyl)piperazin-1-yl)phthalazine]	64.9	3000
CCNC1CCN(c2nnc(-c3ccc(Cl)cc3)c3ccccc23)C1 (stereo not drawn) [Example 54, 1-(4-(4-chlorophenyl)phthalazin-1-yl)-N-ethylpyrrolidin-3-amine hydrochloride]	70	1900
CC(C)[C@H](N)C(=O)N1CCN(c2nnc(-c3ccc(Cl)cc3)c3ccccc23)CC1 [Example 47, (S)-2-amino-1-(4-(4-(4-chlorophenyl)phthalazin-1-yl)piperazin-1-yl)-3-methylbutan-1-one hydrochloride]	87.1	700
CC(C)[C@H](N)C(=O)N1CCN(c2nnc(-c3ccc(Cl)cc3)c3ccccc23)[C@@H](C)C1 [Example 75, (S)-2-amino-1-((S)-4-(4-(4-chlorophenyl)phthalazin-1-yl)-3-methylpiperazin-1-yl)-3-methylbutan-1-one hydrochloride]	30.9	
CC(C)(N)C(=O)N1CCN(c2nnc(-c3ccc(OC(F)(F)F)cc3)c3ccccc23)CC1 [Example 103, 2-amino-2-methyl-1-(4-(4-(4-(trifluoromethoxy)phenyl)phthalazin-1-yl)piperazin-1-yl)propan-1-one hydrochloride]	32	
N[C@H](C(=O)N1CCN(c2nnc(-c3ccc(Cl)cc3)c3ccccc23)CC1)c1ccccc1 [Example 80, (S)-2-amino-1-(4-(4-(4-chlorophenyl)phthalazin-1-yl)piperazin-1-yl)-2-phenylethanone hydrochloride]	69.9	
NC(=O)CC(N)C(=O)N1CCN(c2nnc(-c3ccc(Cl)cc3)c3ccccc23)CC1 (stereo not drawn) [Example 85, 3-amino-4-(4-(4-(4-chlorophenyl)phthalazin-1-yl)piperazin-1-yl)-4-oxobutanamide hydrochloride]	45.3	5400
O=C([C@H]1CCCN1)N1CCN(c2nnc(-c3ccc(Cl)cc3)c3ccccc23)CC1 [Example 51, (R)-(4-(4-(4-chlorophenyl)phthalazin-1-yl)piperazin-1-yl)(pyrrolidin-2-yl)methanone hydrochloride]	88.2	800
CC(C)[C@H](N)C(=O)N1CCN(c2nnc(-c3ccc(Cl)cc3)c3ccccc23)C[C@@H]1C [Example 73, (S)-2-amino-1-((S)-4-(4-(4-chlorophenyl)phthalazin-1-yl)-2-methylpiperazin-1-yl)-3-methylbutan-1-one hydrochloride]	53.6	
O=C1CN[C@H](C(=O)N2CCN(c3nnc(-c4ccc(Cl)cc4)c4ccccc34)CC2)CN1 [Example 81, (S)-5-(4-(4-(4-chlorophenyl)phthalazin-1-yl)piperazine-1-carbonyl)piperazin-2-one hydrochloride]	48.1	
CNCCN(C)c1nnc(-c2ccc(Cl)cc2)c2ccccc12 [Example 53, N1-(4-(4-chlorophenyl)phthalazin-1-yl)-N1,N2-dimethylethane-1,2-diamine]	8.7	
CNCCCN(C)c1nnc(-c2ccc(Cl)cc2)c2ccccc12 [Example 55, N1-(4-(4-chlorophenyl)phthalazin-1-yl)-N1,N3-dimethylpropane-1,3-diamine hydrochloride]	13.1	
CNC1CCN(c2nnc(-c3ccc(Cl)cc3)c3ccccc23)C1 (stereo not drawn) [Example 46, 1-(4-(4-chlorophenyl)phthalazin-1-yl)-N-methylpyrrolidin-3-amine hydrochloride]	97.8	300
